Measured values: PubChem BioAssay AID1918993 (Molecular Pharmacology Branch, DTP, NCI, 2023)

Tested on: 233499-124-R-J3-PDC complex spheroid growth
Assay: Anticancer human tumor 233499-124-R-J3-PDC patient-derived colon adenocarcinoma cell line growth inhibition [AhR]
Settings: for viability, T/C: stronger effect = lower value; active means viability on the fitted dose curve at most 10% of control; inactive means the rest
Source text: Multicellular complex tumor spheroid response to aryl hydrocarbon receptor antagonists in combination with a variety of drugs and investigational agents in selected tumor cell lines
The current study was undertaken to assess response to aryl hydrocarbon receptor antagonists in combination with standard-of-care drugs and investigational agents in solid tumor complex spheroid models. Complex spheroids include a stromal component modeled by human endothelial cells (HUVEC) and fibroblasts modeled by human mesenchymal stem cells (MSCs). The concentration ranges selected for each drug and investigational agent were based upon clinically achievable concentrations if the clinical Cmax of the agent was known.
Compounds. The drugs and investigational agents: BAY 2416964 (NSC825713), GNF351 (NSC835774), CH-223191 (NSC835775), CPI-455 (NSC825282), aza-TdCyd (NSC777586), decitabine (NSC127716), belinostat (NSC758774), entinostat (NSC756642), pevonedistat (NSC761192), tazemetostat (NSC777109), talazoparib (NSC765396), olaparib (NSC753686), selinexor (NSC780203), nedisertib (M3814, NSC802822), bortezomib (NSC756655), venetoclax (NSC766270), doxorubicin (NSC123127), elimusertib (BAY189344, NSC800525), ceralasertib (AZD6738, NSC777638), TAK-243 (NSC785004), alisertib (NSC759677), etoposide (NSC141540), topotecan (NSC609699), eribulin (NSC707389), gemcitabine (NSC613327), carboplatin (NSC241240), cisplatin (NSC119875), and SN-38 (NSC673596) were obtained from the National Cancer Institute (NCI) Developmental Therapeutics Program Chemical Repository (32). The FDA-approved anticancer drug set is available from the Developmental Therapeutics Program at https://dtp.cancer.gov/organization/dscb/obtaining/available plates.htm. […] The stock solutions were prepared in dimethyl sulfoxide (DMSO, Sigma-Aldrich, St. Louis, MO, cat. D2650), except for the platinum compounds which were prepared in saline (Quality Biological, Gaithersburg, MD, cat. 114-055-101), at 800-fold the tested concentration and stored at -70 degrees C prior to their use. All drugs and investigational agents were tested over a range starting from a high concentration at or near the clinical Cmax and decreasing in half-log increments. If the clinical Cmax for an agent had not been determined, the highest concentration tested was 10 microM (Table 1).
Cell Culture. All cells were maintained in an incubator at 37 degrees C and 5% CO2 with 95% humidity. The PDC lines were cultured according to standard operating procedures established by the NCI PDMR (https://pdmr.cancer.gov). Briefly, all PDCs were thawed and cultured in Matrigel-coated flasks prepared with a working solution of 1X Ham's F-12 nutrient mix, without supplementation (Invitrogen, Waltham, MA, cat. 11765054), 100 U/mL penicillin-streptomycin (Invitrogen, cat. 15140122), and 2.5% Matrigel (Corning Inc., Corning, NY, cat. 354248) for the first three passages. All PDCs were cultured in complete DMEM/F-12 media containing advanced DMEM/F-12 (Invitrogen, cat. 12634028), 4.9% defined fetal bovine serum, heat inactivated (HyClone Laboratories Inc., Logan, UT, cat. SH30070.03HI), 389 ng/mL hydrocortisone (Sigma-Aldrich, cat. H4001), 9.7 ng/mL human EGF recombinant protein (Invitrogen, cat. PHG0313), 23.4 microg/mL adenine (Sigma-Aldrich, cat. A2786), 97.3 U/mL penicillin-streptomycin (Invitrogen, cat. 15140122), 1.9 mM L-glutamine (Invitrogen, cat. 25030081), and 9.7 microM Y-27632 dihydrochloride (Tocris Bioscience, Bristol, United Kingdom, cat. 1254). The PDCs were cultured in complete DMEM/F12 media without 10 microM Y-27632 dihydrochloride for at least two passages prior to the screen. The established cell lines NCI-H1341 and […] were cultured in DMEM/F-12, HEPES (Invitrogen, cat. 11330032), 5% defined fetal bovine serum (HyClone Laboratories Inc., cat. SH30070.03), ITS premix universal culture supplement [insulin (5 microg/mL), transferrin (5 microg/mL), and selenious acid (5 ng/mL)] […]

[1] = curve of first compound, second compound 0.1 µM
[2] = curve of first compound, second compound 0.316 µM
[3] = curve of first compound, second compound 1 µM
[4] = curve of first compound, second compound 3.16 µM
[5] = curve of first compound, second compound 10 µM
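Further: spheroids exposed to agents for seven days before reading.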

CCN(c1cc(-c2ccc(CN3CCOCC3)cc2)cc(C(=O)NCc2c(C)cc(C)[nH]c2=O)c1C)C1CCOCC1 + Cc1cncc(-c2nc(NCCc3c[nH]c4ccccc34)c3ncn(C(C)C)c3n2)c1
inactive: viability, T/C (second compound 0.1 µM, first compound 0.00949 µM) 99.1% | viability, T/C (second compound 0.1 µM, first compound 0.03 µM) 101% | viability, T/C (second compound 0.1 µM, first compound 0.0949 µM) 76% | viability, T/C (second compound 0.1 µM, first compound 0.3 µM) 82.3% | viability, T/C (second compound 0.1 µM, first compound 0.949 µM) 95.6% | viability, T/C (second compound 0.1 µM, first compound 3 µM) 90.3% | viability, T/C (second compound 0.316 µM, first compound 0.00949 µM) 108% | viability, T/C (second compound 0.316 µM, first compound 0.03 µM) 109% | viability, T/C (second compound 0.316 µM, first compound 0.0949 µM) 94.6% | viability, T/C (second compound 0.316 µM, first compound 0.3 µM) 100% | viability, T/C (second compound 0.316 µM, first compound 0.949 µM) 106% | viability, T/C (second compound 0.316 µM, first compound 3 µM) 94.6% | viability, T/C (second compound 1 µM, first compound 0.00949 µM) 80.3% | viability, T/C (second compound 1 µM, first compound 0.03 µM) 79.6% | viability, T/C (second compound 1 µM, first compound 0.0949 µM) 75.7% | viability, T/C (second compound 1 µM, first compound 0.3 µM) 78.6% | viability, T/C (second compound 1 µM, first compound 0.949 µM) 80.5% | viability, T/C (second compound 1 µM, first compound 3 µM) 84% | viability, T/C (second compound 3.16 µM, first compound 0.00949 µM) 76.4% | viability, T/C (second compound 3.16 µM, first compound 0.03 µM) 76.9% | viability, T/C (second compound 3.16 µM, first compound 0.0949 µM) 82.4% | viability, T/C (second compound 3.16 µM, first compound 0.3 µM) 89.5% | viability, T/C (second compound 3.16 µM, first compound 0.949 µM) 73.2% | viability, T/C (second compound 3.16 µM, first compound 3 µM) 76% | viability, T/C (second compound 10 µM, first compound 0.00949 µM) 16.1% | viability, T/C (second compound 10 µM, first compound 0.03 µM) 21% | viability, T/C (second compound 10 µM, first compound 0.0949 µM) 9.73% | viability, T/C (second compound 10 µM, first compound 0.3 µM) 10.7%
active: viability, T/C (second compound 10 µM, first compound 0.949 µM) 16.7% | viability, T/C (second compound 10 µM, first compound 3 µM) 3.73%
> 3000 nM: IC50 [1] | IC50 [2] | IC50 [3] | IC50 [4]
< 9.49 nM: IC50 [5]

Nc1ccn(C2OC(CO)C(O)C2(F)F)c(=O)n1 (configuration not stated) + CC(CO)NC(=O)c1cc(-c2ccc(Cl)cc2)nn(-c2cnn(C)c2)c1=O
130 nM: IC50 [5]
113 nM: IC50 [2]
136 nM: IC50 [1]
202 nM: IC50 [4]
inactive: viability, T/C (second compound 0.1 µM, first compound 0.0316 µM) 58.7% | viability, T/C (second compound 0.1 µM, first compound 0.1 µM) 58.9% | viability, T/C (second compound 0.1 µM, first compound 0.316 µM) 18.6% | viability, T/C (second compound 0.1 µM, first compound 1 µM) 30.1% | viability, T/C (second compound 0.1 µM, first compound 3.16 µM) 24.2% | viability, T/C (second compound 0.1 µM, first compound 10 µM) 29.7% | viability, T/C (second compound 0.316 µM, first compound 0.0316 µM) 50% | viability, T/C (second compound 0.316 µM, first compound 0.1 µM) 54% | viability, T/C (second compound 0.316 µM, first compound 0.316 µM) 33.6% | viability, T/C (second compound 0.316 µM, first compound 1 µM) 35% | viability, T/C (second compound 0.316 µM, first compound 3.16 µM) 29.3% | viability, T/C (second compound 0.316 µM, first compound 10 µM) 35.9% | viability, T/C (second compound 1 µM, first compound 0.0316 µM) 61% | viability, T/C (second compound 1 µM, first compound 0.1 µM) 57.8% | viability, T/C (second compound 1 µM, first compound 0.316 µM) 35.3% | viability, T/C (second compound 1 µM, first compound 1 µM) 37.7% | viability, T/C (second compound 1 µM, first compound 3.16 µM) 28.4% | viability, T/C (second compound 1 µM, first compound 10 µM) 36.1% | viability, T/C (second compound 3.16 µM, first compound 0.0316 µM) 65% | viability, T/C (second compound 3.16 µM, first compound 0.1 µM) 69.7% | viability, T/C (second compound 3.16 µM, first compound 0.316 µM) 38.9% | viability, T/C (second compound 3.16 µM, first compound 1 µM) 31.4% | viability, T/C (second compound 3.16 µM, first compound 3.16 µM) 37.9% | viability, T/C (second compound 3.16 µM, first compound 10 µM) 42.4% | viability, T/C (second compound 10 µM, first compound 0.0316 µM) 60.6% | viability, T/C (second compound 10 µM, first compound 0.1 µM) 54.1% | viability, T/C (second compound 10 µM, first compound 0.316 µM) 32.1% | viability, T/C (second compound 10 µM, first compound 1 µM) 31.3% | viability, T/C (second compound 10 µM, first compound 3.16 µM) 51.9% | viability, T/C (second compound 10 µM, first compound 10 µM) 30.1%
149 nM: IC50 [3]

Cc1cncc(-c2nc(NCCc3c[nH]c4ccccc34)c3ncn(C(C)C)c3n2)c1
4.98 µM [middle of 23 runs]: IC50 (compound alone, run of 07/18/2022)
inactive: viability, T/C (compound 0.1 µM) 96.2% [middle of 20 runs] | viability, T/C (compound 0.316 µM) 86.2% [middle of 19 runs] | viability, T/C (compound 1 µM) 78.4% [middle of 20 runs]

CC(CO)NC(=O)c1cc(-c2ccc(Cl)cc2)nn(-c2cnn(C)c2)c1=O (configuration not stated)
inactive: viability, T/C (compound 0.316 µM) 94.2% [middle of 21 runs] | viability, T/C (compound 3.16 µM) 91.3% [middle of 19 runs]
> 10000 nM: IC50 (compound alone, run of 07/12/2022)
